Measured values as given in patent publication US10168342B2, “Lipid probes and uses thereof” (THE SCRIPPS RESEARCH INSTITUTE, priority 2015, dated 2019).
Where two headings read alike, the source gives them in different places.

Tests used:
[1] = target: T1, AEA-DA lipid probe targets in Neuro2a cells (Mus musculus, UniProt P04223)
T1 sequence (P04223 22-369): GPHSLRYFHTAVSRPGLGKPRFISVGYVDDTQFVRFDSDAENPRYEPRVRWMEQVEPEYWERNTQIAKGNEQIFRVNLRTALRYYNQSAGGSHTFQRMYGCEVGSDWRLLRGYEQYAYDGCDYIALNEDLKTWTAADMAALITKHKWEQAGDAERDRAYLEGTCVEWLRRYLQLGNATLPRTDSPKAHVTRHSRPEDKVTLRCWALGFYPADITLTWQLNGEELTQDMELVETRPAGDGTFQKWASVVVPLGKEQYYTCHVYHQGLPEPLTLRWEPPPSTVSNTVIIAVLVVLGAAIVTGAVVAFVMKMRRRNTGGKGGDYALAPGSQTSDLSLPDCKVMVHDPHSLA

[2] = target: AEA-DA lipid probe targets in Neuro2a cells (Mus musculus, UniProt Q8BVU5); details: protein Nudt9, Neuro2a cells
[3] = target: T2, AEA-DA lipid probe targets in Neuro2a cells (Mus musculus, UniProt Q8C0K5)
T2 sequence (Q8C0K5 1-332): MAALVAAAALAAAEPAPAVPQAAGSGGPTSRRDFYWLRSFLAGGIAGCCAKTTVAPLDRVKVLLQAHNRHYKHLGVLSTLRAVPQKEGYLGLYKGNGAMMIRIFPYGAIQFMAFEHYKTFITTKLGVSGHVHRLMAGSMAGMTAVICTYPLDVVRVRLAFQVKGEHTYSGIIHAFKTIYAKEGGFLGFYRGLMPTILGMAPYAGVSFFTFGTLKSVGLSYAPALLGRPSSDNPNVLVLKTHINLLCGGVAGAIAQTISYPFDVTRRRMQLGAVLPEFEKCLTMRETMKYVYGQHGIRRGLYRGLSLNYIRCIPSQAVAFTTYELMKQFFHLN

[4] = target: AEA-DA lipid probe targets in Neuro2a cells (Mus musculus, UniProt Q91VM5); details: protein Rbmxl1, Neuro2a cells
[5] = target: AEA-DA lipid probe targets in Neuro2a cells (Mus musculus, UniProt Q9JKC6)
[6] = target: T3, A-DA lipid probe targets in A549 cells (Homo sapiens, UniProt P07602); test: In situ competitive SILAC profiling with A-DA probe in (PMA-stimulated) A549 cells; details: A549 cells, A-DA probe
T3 sequence (P07602 60-524): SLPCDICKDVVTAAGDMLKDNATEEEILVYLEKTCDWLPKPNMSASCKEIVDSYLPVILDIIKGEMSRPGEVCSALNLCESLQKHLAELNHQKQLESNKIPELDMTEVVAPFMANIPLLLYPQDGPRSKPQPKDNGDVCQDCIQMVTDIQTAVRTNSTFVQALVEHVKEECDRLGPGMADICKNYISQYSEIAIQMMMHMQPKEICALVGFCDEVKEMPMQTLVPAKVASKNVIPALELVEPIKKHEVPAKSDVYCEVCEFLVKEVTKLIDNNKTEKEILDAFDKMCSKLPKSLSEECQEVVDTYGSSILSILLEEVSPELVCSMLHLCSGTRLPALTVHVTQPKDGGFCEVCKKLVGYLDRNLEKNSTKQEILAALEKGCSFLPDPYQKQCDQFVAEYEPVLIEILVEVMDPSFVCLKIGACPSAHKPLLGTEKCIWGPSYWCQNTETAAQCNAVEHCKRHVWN

[7] = target: T4, A-DA lipid probe targets in A549 cells (Homo sapiens, UniProt Q96KC8); test: as above; details: A549 cells, A-DA probe
T4 sequence (Q96KC8 48-554): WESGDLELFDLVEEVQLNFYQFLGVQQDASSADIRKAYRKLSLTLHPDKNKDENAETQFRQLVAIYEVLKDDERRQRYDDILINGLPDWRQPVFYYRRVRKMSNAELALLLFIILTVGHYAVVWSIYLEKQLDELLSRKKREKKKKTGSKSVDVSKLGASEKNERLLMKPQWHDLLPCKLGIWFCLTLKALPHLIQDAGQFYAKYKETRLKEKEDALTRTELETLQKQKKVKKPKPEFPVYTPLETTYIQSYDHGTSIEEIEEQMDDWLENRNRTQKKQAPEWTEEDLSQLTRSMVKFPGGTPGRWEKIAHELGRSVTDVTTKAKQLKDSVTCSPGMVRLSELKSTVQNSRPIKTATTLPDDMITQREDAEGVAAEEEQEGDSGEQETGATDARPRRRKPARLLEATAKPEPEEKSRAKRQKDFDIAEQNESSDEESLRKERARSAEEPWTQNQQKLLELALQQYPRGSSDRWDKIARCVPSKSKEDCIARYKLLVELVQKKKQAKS

[8] = target: T5, A-DA lipid probe targets in A549 cells (Homo sapiens, UniProt Q9BTX1); test: as above; details: A549 cells, A-DA probe
T5 sequence (Q9BTX1 1-674): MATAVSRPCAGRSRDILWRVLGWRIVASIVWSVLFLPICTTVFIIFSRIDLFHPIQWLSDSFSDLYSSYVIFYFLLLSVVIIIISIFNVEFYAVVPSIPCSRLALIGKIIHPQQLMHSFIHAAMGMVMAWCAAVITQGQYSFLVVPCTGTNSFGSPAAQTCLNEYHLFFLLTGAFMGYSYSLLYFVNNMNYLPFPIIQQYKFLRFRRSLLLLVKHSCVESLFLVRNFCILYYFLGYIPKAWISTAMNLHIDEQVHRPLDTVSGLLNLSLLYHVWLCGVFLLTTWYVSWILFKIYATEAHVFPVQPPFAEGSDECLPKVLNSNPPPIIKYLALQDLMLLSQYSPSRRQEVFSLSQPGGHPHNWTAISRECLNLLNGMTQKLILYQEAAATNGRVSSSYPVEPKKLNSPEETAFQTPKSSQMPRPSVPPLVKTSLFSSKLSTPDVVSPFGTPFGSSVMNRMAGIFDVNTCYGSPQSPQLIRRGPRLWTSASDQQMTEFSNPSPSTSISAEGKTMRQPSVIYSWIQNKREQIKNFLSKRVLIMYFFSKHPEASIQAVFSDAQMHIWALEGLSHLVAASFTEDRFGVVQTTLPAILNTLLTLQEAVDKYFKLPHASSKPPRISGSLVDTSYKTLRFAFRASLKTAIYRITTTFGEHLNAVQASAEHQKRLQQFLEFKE

AEA-DA lipid probe targets in Neuro2a cells (Mus musculus, UniProt Q91VM5), sequence (Q91VM5 whole entry): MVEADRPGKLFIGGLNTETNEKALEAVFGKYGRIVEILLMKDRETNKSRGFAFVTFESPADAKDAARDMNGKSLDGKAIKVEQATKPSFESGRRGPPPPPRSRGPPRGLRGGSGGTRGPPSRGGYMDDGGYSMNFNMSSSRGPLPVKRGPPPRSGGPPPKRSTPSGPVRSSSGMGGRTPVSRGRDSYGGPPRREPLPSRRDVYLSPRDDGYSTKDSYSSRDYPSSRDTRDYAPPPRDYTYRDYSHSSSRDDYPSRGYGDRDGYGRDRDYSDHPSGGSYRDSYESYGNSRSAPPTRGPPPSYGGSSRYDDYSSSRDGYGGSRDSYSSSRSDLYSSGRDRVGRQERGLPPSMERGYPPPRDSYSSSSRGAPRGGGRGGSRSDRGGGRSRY
AEA-DA lipid probe targets in Neuro2a cells (Mus musculus, UniProt Q9JKC6), sequence (Q9JKC6 whole entry): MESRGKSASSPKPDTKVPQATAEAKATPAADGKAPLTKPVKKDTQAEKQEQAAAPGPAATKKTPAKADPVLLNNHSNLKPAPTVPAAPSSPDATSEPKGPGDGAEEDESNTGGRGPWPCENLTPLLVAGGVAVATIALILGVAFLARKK
AEA-DA lipid probe targets in Neuro2a cells (Mus musculus, UniProt Q8BVU5), sequence (Q8BVU5 47-350): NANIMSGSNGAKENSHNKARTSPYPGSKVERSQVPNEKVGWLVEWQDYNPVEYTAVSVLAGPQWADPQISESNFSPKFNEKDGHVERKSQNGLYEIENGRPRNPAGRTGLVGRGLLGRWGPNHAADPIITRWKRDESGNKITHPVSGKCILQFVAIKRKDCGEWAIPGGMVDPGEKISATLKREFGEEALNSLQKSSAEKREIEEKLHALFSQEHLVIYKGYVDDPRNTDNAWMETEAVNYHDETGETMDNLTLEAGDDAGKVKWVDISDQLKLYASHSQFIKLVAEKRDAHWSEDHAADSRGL

With `CCCCC/C=C\C/C=C\C/C=C\C/C=C\CCCC(=O)NCCO` [AEA, anandamide, reference compound] the “SILAC ratio H2-K1” value ([1]; competitor 200 μM) was 1.2, the “SILAC ratio (AEA-DA competition)” value ([2]; competitor 200 μM) was 1.0 and the “SILAC ratio Slc25a16” value ([3]; competitor 200 μM) was 1.5. For the same compound, the “SILAC ratio (AEA-DA competition)” value ([4]; competitor 200 μM) was 1.0 and the “SILAC ratio Cend1” value ([5]; competitor 200 μM) was 1.7.

For `O=C(/C=C/c1cccnc1)NCCCCC1CCN(C(=O)c2ccccc2)CC1` [FK-866, reference compound], the “SILAC ratio, PSAP (P07602)” value ([6]; competitor 25 μM) was 1.2, the “SILAC ratio, DNAJC1 (Q96KC8)” value ([7]; competitor 25 μM) was 1.3 and the “SILAC ratio, TMEM48 (Q8VCB1)” value ([8]; competitor 25 μM) was 1.2.

`CN1CCN(C(=O)c2c(-c3ccccc3)c3cc([N+](=O)[O-])ccc3n2C)CC1` [KML110, (1-Methyl-5-nitro-3-phenyl-1H-indol-2-yl)(4-methylpiperazin-1-yl)methanone] was tested, and the “SILAC ratio (AEA-DA competition)” value ([2]; competitor 25 μM) was 1.9 and the “SILAC ratio Cend1” value ([5]; competitor 25 μM) was 0.9.

`CN1CCN(C(=O)c2[nH]c3ccc([N+](=O)[O-])cc3c2-c2ccccc2)CC1` [MJN228, (4-Methylpiperazin-1-yl)(5-nitro-3-phenyl-1H-indol-2-yl)methanone] was tested, and the “SILAC ratio H2-K1” value ([1]; competitor 10 μM) was 1.0, the “SILAC ratio H2-K1” value ([1]; competitor 50 μM) was 0.9 and the “SILAC ratio H2-K1” value ([1]; competitor 100 μM) was 1.0. The “SILAC ratio Slc25a16” value ([3]; competitor 10 μM) was 1.2, the “SILAC ratio Slc25a16” value ([3]; competitor 25 μM) was 1.1 and the “SILAC ratio (AEA-DA competition)” value ([4]; competitor 10 μM) was 1.1. For the same compound, the “SILAC ratio (AEA-DA competition)” value ([4]; competitor 25 μM) was 1.2 and the “SILAC ratio (AEA-DA competition)” value ([4]; competitor 100 μM) was 1.3.

In the case of `C=CCN(C)CCCCCCOc1ccc(C(=O)c2ccc(Br)cc2)c(F)c1` [Ro488071], the “SILAC ratio, PSAP (P07602)” value ([6]; competitor 5 μM) is reported as 2.3, the “SILAC ratio, PSAP (P07602)” value ([6]; competitor 50 μM) is reported as 3.1 and the “SILAC ratio, DNAJC1 (Q96KC8)” value ([7]; competitor 5 μM) is reported as 1.6. The “SILAC ratio, DNAJC1 (Q96KC8)” value ([7]; competitor 50 μM) was 3.9, the “SILAC ratio, TMEM48 (Q8VCB1)” value ([8]; competitor 5 μM) was 1.5 and the “SILAC ratio, TMEM48 (Q8VCB1)” value ([8]; competitor 50 μM) was 2.8.
